Measurements published in patent US11865158B2, “Process and composition matter of nanoparticle formulation for systemic treatment of sepsis” (PURDUE RESEARCH FOUNDATION, priority 2019, dated 2024).
≈ marks a conversion by molar mass, not a printed value.

Assays:
Test in all cases: Minimum inhibitory concentration, broth microdilution
Type in all cases: cell-based
[1] = system: Pseudomonas aeruginosa NR-50573
From the text: (§1) Bacterial cell lines and reagents. Escherichia coli ATCC 2452 (NDM-1, isolated in Pakistan) was New Delhi metallo-beta-lactamase (NDM-1) positive, blaNDM positive by PCR, and carbepenem-resistant (Imipenem and Ertapenem). Escherichia coli ATCC 2469 (1001728, isolated from human urine) was New Delhi metallo-beta-lactamase (NDM-1) positive, blaKPC negative and blaNDM positive by PCR, and Carbepenem-resistant (Imipenem and Ertapenem). Klebsiella pneumoniae (NR-41920, isolated in 2008 from human blood culture in Boston, Massachusetts, USA) was Carbapenem-resistant strain, blaKPC-3 positive by PCR, and resistant to amikacin, ampicillin/sulbactam, cefazolin, cefepime, ceftazidime, ceftriaxone, cefuroxime, ciprofloxacin, gentamicin, meropenem, piperacillin/tazobactam, tobramicin and trimethoprim/sulfamethoxazole. Pseudomonas aeruginosa (NR-50573, isolated in early 1970s from the blood of a burn patient at Mercy Hospital in Pittsburgh, Pennsylvania, USA) was resistant to rifampicin and susceptible to meropenem, ofloxacin, ceftazidime, amikacin, and tobramycin. 0.5 McFarland standard was purchased from ThermoFisher scientific (Waltham, MA, USA). Mueller-Hinton broth and tryptone soy agar plates were purchased from Becton, Dickinson and company (Franklin Lakes, New Jersey, USA).
(§2) Antimicrobial activities The minimum inhibitory concentrations (MICs) of the control antibiotics (gentamicin and imipenem), PMB, D-TZP and TZP against Escherichia coli, Klebsiella pneumoniae and Pseudomonas aeruginosa strains were determined by the broth microdilution method, according to guidelines outlined by the Clinical and Laboratory Standards Institute (CLSI)^18. The bacterial stains were grown aerobically overnight on tryptone soy agar plates at 37° C. Afterwards, a bacterial solution equivalent to 0.5 McFarland standard was prepared and diluted in cation-adjusted Mueller-Hinton broth (CAMHB) to achieve a bacterial concentration of ˜5×10^5 CFU/mL. The treatments were added in the first row of the 96-well plates and serially diluted with media containing bacteria. Plates were incubated aerobically at 37° C. for 16-18 hours.

[2] = system: Escherichia coli ATCC 2469
From the text: as §1, §2

[3] = system: Klebsiella pneumoniae NR-41920
From the text: as §1, §2

[4] = system: Escherichia coli ATCC 2452
From the text: as §1, §2

Molecule | Minimum inhibitory concentration (MIC) [1] [µg/mL] | Minimum inhibitory concentration (MIC) [2] [µg/mL] | Minimum inhibitory concentration (MIC) [3] [µg/mL] | Minimum inhibitory concentration (MIC) [4] [µg/mL] | MIC ([1]; NR50573) [µg/mL] | MIC ([2]; ATCC2469) [µg/mL] | MIC ([3]; NR41920) [µg/mL] | MIC ([4]; ATCC2452) [µg/mL]
gentamicin | 1 | >64 | 64 | >64 | – | – | – | –
C[C@@H](O)[C@H]1C(=O)N2C(C(=O)O)=C(SCCN=CN)C[C@H]12 [Imipenem, imipenem] | – | – | – | – | 1 (≈ 3.34 µM) | 16 (≈ 53.4 µM) | 8 (≈ 26.7 µM) | 16 (≈ 53.4 µM)
